System: BdATVR parasites
Assay type: cell-based, Babesia duncani
Settings: IC50 BdATVR versus WA1

With `O=C1C(O)=C([C@H]2CC[C@H](c3ccc(Cl)cc3)CC2)C(=O)c2ccccc21` [Atovaquone] the “fold resistance of BdATVR compared with WA1” value was 15.2 fold.

From article PMC10159843, “Babesia duncani multi-omics identifies virulence factors and drug targets” (Nature Microbiology, 2023)
